Read-outs that look alike come from different tables or passages of the source.
Target: T1, gamma-secretase (partially purified extract of IMR-32 cell membranes; substrate MBP-C125 Swe fusion protein, cleavage at the Aβ40 site) (Homo sapiens, UniProt P49768)
T1 construct: a partially purified extract of IMR-32 cell membranes as the gamma-secretase enzyme preparation; endogenous in cells; host or cells: IMR-32 cell membranes, partially purified extract
Assay: Gamma-secretase APP enzyme assay (Example A)
Format: biochemical
Conditions: assay described in Example A
Source text: The gamma-secretase APP enzyme assay was designed to measure the specific proteolytic cleavage of an APP substrate (MBP-C125 Swe fusion protein) at the Aβ40 site. […] This assay involved two steps beginning with the enzymatic reaction generating a cleavage product that was captured with an immobilized antibody specific for the neo-epitope Aβ40 site. The captured cleavage product was then detected in a sandwich ELISA assay with a biotinylated reporter antibody that is specific to Aβ(17-28). Streptavidin-linked alkaline phosphatase was then added that would generate a fluorescent signal proportional to the amount of cleavage product.
This warmed solution of BigCHAPS (N,N-Bis(3-D-gluconamidopropyl)cholamide) detergent was used to dissolve Brain Extract Type-V (lipid containing a minimum of 40% phosphatidylethanolamine) from Sigma (St. Louis, Mo.) to a concentration of 8 mg/ml. This solution containing BigCHAPS and lipid at 8 mg/ml is then diluted to 0.53 mg/ml lipid with a pre-warmed solution of Hepes and sodium chloride.
Gamma-secretase was then added to a 96-well micro-titre plate and then incubated with various concentrations of inhibitor for 30 minutes at 37° C. MBPC125 substrate was then added to initiate the reaction that would run for two hours at 37° C. The reaction was quenched with the addition of SDS to a final concentration of 0.1% and then 100 μl of the reaction mixture was transferred to a capture ELISA plate and incubated overnight at 4° C. Detection of the cleavage product was performed using a standard sandwich ELISA assay and quantified using a six point standard curve.

[1] = class symbols, read-out: γAPP IC50
[2] = numeric bounds given instead of class symbols, read-out: γAPP IC50

| IC50 [1] [nM] | Compound | further results |
| --- | --- | --- |
| < 100 | O=S(=O)(c1ccc(C(F)(F)F)cc1)N1C2Cc3n[nH]cc3C1C(C1CC1)C2 (stereo not shown) [compound 45] |  |
| 500 to 999 | O=S(=O)(c1ccc(C(F)(F)F)nc1)N1C2Cc3[nH]ncc3C1c1ccc(Cl)cc12 (single isomer, unassigned) [compound 223] |  |
| 100 to 499 | O=S(=O)(c1ccc(C(F)(F)F)cc1)N1C2Cc3[nH]ncc3C1c1ccc3ccccc3c12 (stereo not shown) [compound 169] |  |
| < 100 | O=S(=O)(c1ccc(C(F)(F)F)cc1)N1C2Cc3cccc(F)c3C1Cc1n[nH]cc12 (racemic) [compound 181] |  |
| < 100 | CO/N=C1\c2[nH]ncc2C2c3cccc(Cl)c3C1N2S(=O)(=O)c1ccc(C(F)(F)F)nc1 (stereo not shown) [compound 269] |  |
| < 100 | O=S(=O)(c1ccc(C(F)(F)F)nc1)N1C2Cc3[nH]ncc3C1c1cccc(Cl)c12 (stereo not shown) [compound 228] |  |
| < 100 | O=C1c2[nH]ncc2C2c3ccccc3C1N2S(=O)(=O)c1ccc(C(F)(F)F)cc1 (stereo not shown) [compound 173] |  |
| < 100 | Cc1cc(F)cc2c1C1c3c[nH]nc3CC2N1S(=O)(=O)c1ccc(C(F)(F)F)nc1 (stereo not shown) [compound 159] |  |
| 100 to 499 | COC(=O)c1cccc2c1C1Cc3[nH]ncc3C2N1S(=O)(=O)c1ccc(C(F)(F)F)nc1 (stereo not shown) [compound 227] |  |
| 500 to 999 | Cn1cc(C2CC3Cc4[nH]ncc4C(C2)N3S(=O)(=O)c2ccc(Cl)cc2)nn1 (single isomer, unassigned) [compound 138] |  |
| < 100 | O=S(=O)(c1ccc(C(F)(F)F)cc1)N1C2Cc3[nH]ncc3C1c1ccccc12 (racemic) [compound 52] |  |
| < 100 | O=S(=O)(c1ccc(C(F)(F)F)cc1)N1C2Cc3[nH]ncc3C1c1cc(F)c(F)cc12 (stereo not shown) [compound 95] |  |
| > 1000 | O=S(=O)(c1ccc(C(F)(F)F)cc1)N1C2Cc3[nH]ncc3C1c1ccccc12 (stereo not shown) [compound 72] |  |
| < 100 | O=S(=O)(c1ccc(C(F)(F)F)nc1)N1C2Cc3n[nH]cc3C1c1nc(Br)ccc12 (single isomer, unassigned) [compound 248] |  |
| < 100 | O=S(=O)(c1ccc(C(F)(F)F)cc1)N1C2c3cc(F)c(F)cc3C1C(F)(F)c1n[nH]cc12 (stereo not shown) [compound 77] |  |
| < 100 | O=S(=O)(c1ccc(C(F)(F)F)cc1)N1C2Cc3[nH]ncc3C1c1cccc(-c3ccc(F)cc3)c1C2 (racemic) [compound 162] |  |
| < 100 | O=S(=O)(c1ccc(C(F)(F)F)cc1)N1C2=Cc3c(-c4cccc(C(F)(F)F)c4)cccc3C1Cc1n[nH]cc12 (stereo not shown) [compound 177] |  |
| < 100 | O=S(=O)(c1ccc(C(F)(F)F)nc1)N1C2Cc3[nH]ncc3C1c1c(Cl)cccc12 (single isomer, unassigned) [compound 233] |  |
| < 100 | O=S(=O)(c1ccc(C(F)(F)F)cc1)N1C2Cc3[nH]ncc3C1c1ccc3ccccc3c12 (stereo not shown) [compound 160] |  |
| < 100 | O=S(=O)(c1ccc(C(F)(F)F)cc1)N1C2Cc3[nH]ncc3C1CC(c1ccc(-n3cccn3)cc1)C2 (stereo not shown) [compound 124] |  |
| > 1000 | Cc1nc(C2CC3Cc4[nH]ncc4C(C2)N3S(=O)(=O)c2ccc(C(F)(F)F)cc2)n[nH]1 (racemic) [compound 85] |  |
| > 1000 | N#Cc1ccc2c(c1)C1Cc3n[nH]cc3C2N1S(=O)(=O)c1ccc(C(F)(F)F)nc1 (single isomer, unassigned) [compound 172] |  |
| < 100 | Cn1nncc1C1CC2Cc3[nH]ncc3C(C1)N2S(=O)(=O)c1ccc(Cl)cc1 (racemic) [compound 136] |  |
| < 100 | O=S(=O)(c1ccc(C(F)(F)F)cc1)N1C2Cc3cccc(F)c3C1Cc1n[nH]cc12 (stereo not shown) [compound 190] |  |
| < 100 | O=C1c2n[nH]cc2C2c3cc(F)c(F)cc3C1N2S(=O)(=O)c1ccc(C(F)(F)F)cc1 (stereo not shown) [compound 69] |  |
| < 100 | O=S(=O)(c1ccc(C(F)(F)F)nc1)N1[C@H]2c3cn[nH]c3[C@H](F)[C@@H]1c1cccc(F)c12 [compound 267] |  |
| < 100 | O=S(=O)(c1ccc(Cl)cc1)N1C2Cc3[nH]ncc3C1c1c(F)cccc12 (single isomer, unassigned) [compound 231] |  |
| 100 to 499 | O=S(=O)(c1ccc(C(F)(F)F)nc1)N1C2c3c[nH]nc3[C@@H](O)C1c1c(F)cccc12 (stereo partly shown) [compound 240] |  |
| 100 to 499 | Cn1ncc(C2CC3Cc4[nH]ncc4C(C2)N3S(=O)(=O)c2ccc(Cl)cc2)n1 (stereo not shown) [compound 140] |  |
| < 100 | O=S(=O)(c1ccc(C(F)(F)F)cc1)N1C2Cc3n[nH]cc3C1CC(c1ccc(Br)cc1)C2 (stereo not shown) [compound 106] |  |

The next lines start with the molecule.

| Compound | IC50 [1] [nM] | further results |
| --- | --- | --- |
| O=S(=O)(c1ccc(C(F)(F)F)nc1)N1C2Cc3n[nH]cc3C1c1ncsc12 (stereo not shown) [compound 188] |  | IC50 (γAPP IC50 (nM), class symbols): > 1000 nM |
| O=C1c2[nH]ncc2C2c3c(F)cccc3C1N2S(=O)(=O)c1ccc(Cl)cc1 (stereo not shown) [compound 243] | 100 to 499 |  |
| O=S(=O)(c1ccc(C(F)(F)F)cc1)N1C2Cc3[nH]ncc3C1c1cnccc12 (stereo not shown) [compound 120] | > 1000 |  |
| O=S(=O)(c1ccc(C(F)(F)F)nc1)N1C2Cc3[nH]ncc3C1c1ncc(F)cc12 (single isomer, unassigned) [compound 260] |  | IC50 (γAPP IC50 (nM), class symbols): < 100 nM |
| C=C1c2[nH]ncc2C2c3cccc(Cl)c3C1N2S(=O)(=O)c1ccc(C(F)(F)F)nc1 (stereo not shown) [compound 272] | < 100 |  |
| O=S(=O)(c1ccc(C(F)(F)F)cc1)N1C2c3cn[nH]c3C(F)C1c1cccc(F)c12 (single isomer, unassigned) [compound 263] | < 100 |  |
| O=S(=O)(c1ccc(C(F)(F)F)cc1)N1C2Cc3[nH]ncc3C1c1ccccc12 (racemic) [compound 73] | < 100 |  |
| O=S(=O)(c1ccc(C(F)(F)F)nc1)N1C2Cc3[nH]ncc3C1c1ncc(F)cc12 (single isomer, unassigned) [compound 259] |  | IC50 (γAPP IC50 (nM), class symbols): > 1000 nM |
| O=S(=O)(c1ccc(C(F)(F)F)cc1)N1C2c3cn[nH]c3C(F)C1c1cccc(F)c12 (single isomer, unassigned) [compound 262] | > 1000 |  |
| O=S(=O)(c1ccc(C(F)(F)F)nc1)N1C2c3ccccc3C1[C@@H](F)c1n[nH]cc12 (stereo partly shown) [compound 206] | < 100 |  |
| O=S(=O)(c1ccc(C(F)(F)F)nc1)N1C2Cc3[nH]ncc3C1c1c(-c3ccc(F)cc3)cccc12 (racemic) [compound 273] |  | IC50 [2]: > 100 nM |
| N#Cc1ccc2c(c1)C1Cc3n[nH]cc3C2N1S(=O)(=O)c1ccc(C(F)(F)F)nc1 (single isomer, unassigned) [compound 174] | < 100 |  |
| O=S(=O)(c1ccc(C(F)(F)F)nc1)N1C2Cc3ccccc3C1c1c[nH]nc1C2 (stereo not shown) [compound 88] | < 100 |  |
| O=S(=O)(c1ccc(C(F)(F)F)cc1)N1C2c3c[nH]nc3C(F)(F)C1c1c(F)cccc12 (stereo not shown) [compound 121] | < 100 |  |
| O=S(=O)(c1ccc(C(F)(F)F)cc1)N1C2Cc3[nH]ncc3C1c1ncccc12 (single isomer, unassigned) [compound 101] | < 100 |  |
| COC(=O)CCCNc1ccc(C2CC3Cc4n[nH]cc4C(C2)N3S(=O)(=O)c2ccc(C(F)(F)F)cc2)cc1 (stereo not shown) [compound 142] | < 100 |  |

| Compound | IC50 [1] [nM] | further results |
| --- | --- | --- |
| CC12C(=O)c3[nH]ncc3C(c3ccccc31)N2S(=O)(=O)c1ccc(C(F)(F)F)nc1 (stereo not shown) [compound 276] |  | IC50 [2]: > 30 nM |
| O=S(=O)(c1ccc(C(F)(F)F)nc1)N1C2Cc3n[nH]cc3C1c1c(F)ccc(F)c12 (stereo not shown) [compound 131] | < 100 |  |
| O=S(=O)(c1ccc(C(F)(F)F)cc1)N1C2c3c[nH]nc3C(F)(F)C1c1cccc(F)c12 (stereo not shown) [compound 123] | < 100 |  |
| O=S(=O)(c1ccc(C(F)(F)F)nc1)N1C2c3cn[nH]c3C(F)(F)C1c1c(F)cccc12 (stereo not shown) [compound 215] | < 100 |  |
| O=S(=O)(c1ccc(C(F)(F)F)nc1)N1C2Cc3[nH]ncc3C1c1cc(Cl)ccc12 (stereo not shown) [compound 222] | < 100 |  |
| O=S(=O)(c1ccc(C(F)(F)F)nc1)N1C2Cc3[nH]ncc3C1c1cc(O)ccc12 (racemic) [compound 225] | < 100 |  |
| O=S(=O)(c1ccc(C(F)(F)F)cc1)N1C2Cc3c(-c4ccc(F)cc4)cccc3C1Cc1[nH]ncc12 (racemic) [compound 165] | < 100 |  |
| O=S(=O)(c1ccc(C(F)(F)F)nc1)N1C2Cc3[nH]ncc3C1c1nc(C3CC3)ccc12 (stereo not shown) [compound 255] | 100 to 499 |  |
| O=C1c2[nH]ncc2C2c3ccccc3C1N2S(=O)(=O)c1ccc(C(F)(F)F)cc1 (stereo not shown) [compound 71] | < 100 |  |
| O=S(=O)(c1ccc(C(F)(F)F)nc1)N1C2Cc3n[nH]cc3C1c1nc(-c3ccc(F)cc3)ccc12 (stereo not shown) [compound 254] | 100 to 499 |  |
| Cc1cc(C2CC3Cc4[nH]ncc4C(C2)N3S(=O)(=O)c2ccc(Cl)cc2)on1 (racemic) [compound 76] | < 100 |  |
| Cc1nc(C2CC3Cc4[nH]ncc4C(C2)N3S(=O)(=O)c2ccc(C(F)(F)F)cc2)n(C)n1 (racemic) [compound 80] | 500 to 999 |  |
| O=S(=O)(c1ccc(C(F)(F)F)nc1)N1C2c3cn[nH]c3[C@@H](O)C1c1cccc(F)c12 (stereo partly shown) [compound 238] | < 100 |  |
| O=S(=O)(c1ccc(C(F)(F)F)cc1)N1C2Cc3[nH]ncc3C1c1cccnc12 (stereo not shown) [compound 100] | < 100 |  |
| O=S(=O)(c1ccc(C(F)(F)F)nc1)N1C2Cc3[nH]ncc3C1c1ccccc12 (stereo not shown) [compound 196] |  | IC50 [2]: > 30 nM |

Source: patent publication US8283358B2, “N-sulfonamido polycyclic pyrazolyl compounds” (Elan Pharmaceuticals, Inc., priority 2008, dated 2012)
